Consider two compounds from US20170362609A1, “[…] NANOPARTICLES FOR CODELIVERY OF WATER-INSOLUBLE SMALL MOLECULES AND RNAi” (Massachusetts Institute of Technology, priority 2016, published 2017).

Some results are limits rather than exact numbers.

One assay relates to 5′-GMP. The experiment in a line: 5′-GMP binding with platinum species by 1HNMR.
In assay [1] the test system is BCL-2 siRNA. The experiment in a line: siRNA binding with platinum species by MALDI-TOF-MS. To be noted: 10-fold excess of platinum. The protocol:
The reaction mixture was placed in a 37° C. incubator and 10 μL of sample were removed at various time points to obtain MALDI-TOF-MS spectra (positive model).

In assay [2] the test system is BCL-2 siRNA. The experiment in a line: Double-stranded siRNA binding with platinum species by AAS. The conditions noted are these: by 3 h of incubation. The protocol: A double-stranded RNA (sense: […]-ATT; antisense: […]-[…]) was mixed with OxaPt(II) at a molar ratio of 1:10 in RNAase free water (RNA final concentration: 5 μM; Pt final concentration at 50 μM; total volume of 100 μL). […] The RNA was then isolated using a centrifugation separation device (molecular cut-off 3000 Da, spun at 10,000 rpm; Nanosep®3k, Pall Corporation, USA). Five wash cycles with RNAase free water (5×100 μL) then ensued. An aliquot of 2 μL from each sample was obtained for optical density (OD) measurements in order to quantify the concentration of RNA in the original sample, using a NanoDrop reader. The remainder of each sample was diluted in 3% HNO3 for Pt content measurement via AAS. The experiments were performed in triplicate and data are presented such that the concentration of Pt-RNA adducts at each time point are expressed as “μmol Pt/μmol RNA”. Analogous methods were employed to obtain similar values for the numbers of Pt-RNA adducts formed by the reaction of siRNA with OxaPt(IV), CisPt(II) or CisPt(IV) at similar time points.
MALDI/TOF MS was used to ascertain the kinetics of platinum-RNA adduct formation using BCL-2 siRNA that was incubated with a 10-fold excess of various platinum(II) or platinum(IV) species. […]

For assay [3], the system named is MCF-7 cells. The assay can be described thus: Intracellular platinum uptake. In kind it is cell-based. The protocol: FIG. 19A is a bar graph showing platinum uptake (μg Pt/cell) for various compositions. […] Experiments were performed in triplicate. […] IC50 values were derived from three independent experiments each with four technical replicates per condition.
MCF-7 cells were seeded in 12-well plates at a density of 10^5 cells per well and incubated overnight in 1 mL of DMEM containing 10% FBS. […]

Assay [4] relates to MCF-7 cells. The experiment in a line: Pt-DNA adducts in cells. To be noted: 24 h after treatment. In kind it is cell-based. The protocol:
FIG. 19B is a bar graph showing the total number of Pt-DNA adducts (pg Pt/μg DNA) as assessed after 24 h of incubation with each treatment group, as defined in the description of FIG. 19A. DNA was isolated after cellular lysis and the content of DNA-bound Pt was determined by ICP-MS. Experiments were performed in triplicate. […] IC50 values were derived from three independent experiments each with four technical replicates per condition. […] In all cases, significance is defined as *p<0.05, **p<0.01, and ***p<0.001.
Atomic absorption spectroscopy (generation 8.0, Perkin Elmer) was used to study the kinetics of siRNA platination and to determine the platinum content in all micellar formulations. Inductively coupled plasma mass spectrometry (ICP-MS, Xseries II, Thermo scientific, USA) was used for quantitative determination of trace levels of platinum in cancer cells and to quantify Pt-DNA adduct formation. Sizes and distributions of micelles were determined by dynamic light scattering (DLS) with a vertically polarized He—Ne laser (DAWN EOS, Wyatt Technology, USA). The size and morphologies of the micelles very visualized using a JEOL JEM-1011 electron microscope. Particle size and zeta potential measurements were conducted on a Malvern Zetasizer Nano ZS90. Micelles were prepared by directly dissolving various modified triblock copolymers in water at 0.5 mg/mL.

For assay [5], the system named is MCF-7 cells. The assay can be described thus: MTT cytotoxicity. The conditions noted are these: platinum concentration, siRNA 100 nM. In kind it is cell-based. The protocol: In vitro Cytotoxicity Measurements. MCF-7 cells were seeded in 96-well plates at a density of 1×10^4 cells/well. 100 μL of DMEM supplemented with 10% FBS were added to each well and the cells were incubated at 37° C. for 24 h. […] All experiments were conducted in triplicate.

For another assay, the system named is OVCAR4 cells. The assay can be described thus: MTT cytotoxicity. The assay is classed as cell-based. To be noted: platinum concentration.
In a further assay the test system is A2780 cells. The experiment in a line: MTT cytotoxicity. In kind it is cell-based. The conditions noted are these: platinum concentration.
The subject of a further assay is A2780DDP cells. The assay can be described thus: MTT cytotoxicity. In kind it is cell-based. To be noted: platinum concentration.

Description for 5′-GMP: The binding kinetics of 5′-GMP to each platinum species were determined by measuring the relative amounts of free and Pt-bound 5′-GMP at each time point, integrating the ratio of the ^1HNMR peaks at 8.5 ppm to 8.09 ppm.

With `N.N.[Cl][Pt][Cl]` [CisPt(II), cisplatin], the “formation of Pt(NH3)2(5′-GMP)2 adducts” value in the assay with 5′-GMP (data not shown) was “Similarly rapid formation and time dependent increases”. The “time at which Pt-siRNA adducts could be detected” value in the assay with BCL-2 siRNA [1] was ≤ 30 m.
As to `O=C1[O][Pt]2([NH][C@@H]3CCCC[C@H]3[NH]2)[O]C1=O` [OxaPt(II), Oxaliplatin], the “DACHPt(5′-GMP)2 adducts, share of the 5′-GMP pool” value in the assay on 5′-GMP (30 m incubation, 10 mM 5′-GMP, 5 mM Pt, 37° C.) was “approximately 10%”. Further, in the assay with 5′-GMP (over the first 6 h, 10 mM 5′-GMP, 5 mM Pt, 37° C.), the “DACHPt(5′-GMP)2 adducts, share of the total 5′-GMP pool” value is given as > 40%. In addition, the “time at which Pt-siRNA adducts could be detected” value in the assay with BCL-2 siRNA [1] worked out at 1 h. For the same compound, the siRNA transcripts platinated in the assay with BCL-2 siRNA [2] is reported as > 50%. In addition, the “Platinum uptake 1 h” value in the assay with MCF-7 cells [3] (1 h) is on record as 369 ± 24 pg Pt/cell (×10^−4). Also, in the assay with MCF-7 cells [3] (4 h), the “Platinum uptake 4 h” value is on record as 535 ± 16 pg Pt/cell (×10^−4). Also, in the assay on MCF-7 cells [4], the “Pt-DNA adducts After 24 h” value was 41.10 ± 9.84 ng Pt/μg DNA. Also, the half-inhibitory concentration (IC50) (commonly the midpoint of a concentration-inhibition curve) is 23.1 ± 0.25 µM with MCF-7 cells [5], 15.5 ± 0.5 µM in the assay on OVCAR4 cells, 2.9 ± 0.28 µM in the assay with A2780 cells and 18.8 ± 0.99 µM in the assay with A2780DDP cells.
